Measured values reported in paper PMC7321402, “Insights on the Extraction Performance of Alkanediols and Glycerol: Using Juglans regia L. Leaves as a Source of Bioactive Compounds” (Molecules, 2020).
≈ marks a conversion by molar mass, not a printed value. Where “and” joins values, the source holds several entries; their conditions need not be identical. Equal values may be shown once. Read-outs that look alike come from different tables or passages of the source. Each block holds one compound with its values, some of them ahead of it.

Experiments:
[1] = test system: non-tumor PLP2 cells (porcine liver primary cells); experiment: Sulforhodamine B growth inhibition assay, PLP2 (hepatotoxicity)
Method: (§1) J. regia leaf extracts (30 mg/mL) and solvents were studied regarding their inhibitory growth activity of the HeLa (cervical carcinoma) cell line and the non-tumor PLP2 cells (porcine liver primary cells) by using a sulforhodamine B assay. The extracts were diluted to obtain a stock solution of 10 mg/mL, and the concentration of the working solutions ranged from 500 to 7.8 µg/mL, while the concentration of the solvents ranged from 4% to 0.0156%. Ellipticine was used as positive control. The experimental protocol related to the cell cultures was previously described by Barros et al. and Abreu et al..

[2] = test system: HeLa (cervical carcinoma) cell line; experiment: Sulforhodamine B growth inhibition assay, HeLa; format: cell-based, human
Method: as §1

[3] = Sulforhodamine B growth inhibition assay, PLP2 (hepatotoxicity); conditions: pig, PLP2 cells (porcine liver primary cells, non-tumor)
Method: as §1

[4] = solvent without extract, range 4% to 0.0156%, mean ± SD

Structure (SMILES): OCCO [1,2-ethanediol]
GI50 PLP2, Solvent [1]: >4 %, v/v | GI50 HeLa, Solvent [2]: >4 %, v/v

Structure (SMILES): CCCCC(O)CO (stereo not shown) [1,2-hexanediol]
GI50 PLP2, Solvent [1, 4]: 0.285 ± 0.005 %, v/v and 0.285 ± 0.005c %, v/v | GI50 HeLa, Solvent [2, 4]: 0.36 ± 0.02 %, v/v and 0.36 ± 0.02c %, v/v

GI50 HeLa, Solvent [2, 4]: 0.63 ± 0.04a %, v/v
Structure (SMILES): CCCC(O)CO (stereo not shown) [1,2-pentanediol]
GI50 PLP2, Solvent [1, 4]: 0.89 ± 0.04a %, v/v

Structure (SMILES): CC(O)CO (stereo not shown) [1,2-propanediol]
GI50 PLP2, Solvent [1, 4]: >4 %, v/v | GI50 HeLa, Solvent [2, 4]: >4 %, v/v

Structure (SMILES): CC(O)CCO (stereo not shown) [1,3-butanediol]
GI50 PLP2, Solvent [1, 4]: >4 %, v/v | GI50 HeLa, Solvent [2, 4]: >4 %, v/v

Structure (SMILES): OCCCO [1,3-propanediol]
GI50 PLP2, Solvent [1, 4]: >4 %, v/v | GI50 HeLa, Solvent [2, 4]: >4 %, v/v

GI50 HeLa, Solvent [2, 4]: 0.49 ± 0.02b %, v/v
Structure (SMILES): OCCCCCO [1,5-pentanediol]
GI50 PLP2, Solvent ([1]; pig): 0.59 ± 0.02b %, v/v

Structure (SMILES): Cc1c2ccncc2c(C)c2c1[nH]c1ccccc12 [Ellipticine, reference compound]
GI50 [3]: 2.3 µg/mL (≈ 9.34 µM) | GI50 ([2]; Homo sapiens, HeLa, positive control, mean ± SD): 1 ± 0.1 µg/mL (≈ 4.06 µM)

Structure (SMILES): CCO [Ethanol, ethanol]
GI50 PLP2, Solvent [1]: >4 %, v/v | GI50 HeLa, Solvent [2, 4]: >4 %, v/v

GI50 HeLa, Solvent [2, 4]: >4 %, v/v
Structure (SMILES): OCC(O)CO [Glycerol, glycerol]
GI50 PLP2, Solvent ([1]; pig): >4 %, v/v

GI50 HeLa, Solvent [2, 4]: >4 %, v/v
Structure (SMILES): O [Water, water]
GI50 PLP2, Solvent [1]: >4 %, v/v
